In US8257965B2, “Arrays of biological membranes and methods and use thereof” (Corning Incorporated, priority 2001, dated 2012):
Blank lines part the entries; values can stand above or below the compound they belong to.

Columns and labels:
α2A = molecular target: T1, α2A (Homo sapiens, UniProt P08913); details: known value; cited from earlier work
T1 sequence (P08913 1-465): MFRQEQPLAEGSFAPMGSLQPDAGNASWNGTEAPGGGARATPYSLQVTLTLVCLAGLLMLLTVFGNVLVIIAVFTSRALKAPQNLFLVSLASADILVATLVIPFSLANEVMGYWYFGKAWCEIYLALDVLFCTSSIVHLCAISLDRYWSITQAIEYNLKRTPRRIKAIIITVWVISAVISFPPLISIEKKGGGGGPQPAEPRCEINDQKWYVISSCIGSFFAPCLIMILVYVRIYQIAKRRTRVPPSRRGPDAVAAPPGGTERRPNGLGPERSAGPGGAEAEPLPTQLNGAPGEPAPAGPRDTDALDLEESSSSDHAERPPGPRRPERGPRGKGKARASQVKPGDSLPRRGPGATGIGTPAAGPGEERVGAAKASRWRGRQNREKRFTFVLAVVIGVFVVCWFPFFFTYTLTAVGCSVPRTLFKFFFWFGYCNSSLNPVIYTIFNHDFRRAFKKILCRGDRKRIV

β1 = β1 (Homo sapiens, UniProt P08588); experiment: Family-specific adrenergic receptor array, competition with BODIPY-TMR-CGP12177; type: binding
β1, sequence (P08588 whole entry): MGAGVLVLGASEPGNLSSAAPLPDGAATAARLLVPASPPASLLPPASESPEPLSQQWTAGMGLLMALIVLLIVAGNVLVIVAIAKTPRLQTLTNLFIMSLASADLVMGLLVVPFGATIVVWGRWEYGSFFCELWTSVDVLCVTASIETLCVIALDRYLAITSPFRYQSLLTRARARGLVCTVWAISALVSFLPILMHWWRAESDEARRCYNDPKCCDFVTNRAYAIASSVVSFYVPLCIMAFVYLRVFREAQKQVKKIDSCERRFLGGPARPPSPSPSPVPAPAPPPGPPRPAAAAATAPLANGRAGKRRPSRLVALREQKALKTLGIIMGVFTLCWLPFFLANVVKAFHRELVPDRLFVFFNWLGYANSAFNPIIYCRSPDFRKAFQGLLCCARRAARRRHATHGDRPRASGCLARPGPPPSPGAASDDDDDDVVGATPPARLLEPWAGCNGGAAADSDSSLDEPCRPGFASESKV
Experimental: FIGS. 9A, 9B and 9C illustrate GPCR theme arrays used to differentiate the selectivity of compounds of interest to receptors relating to a single subfamily. Multiple arrays of β1, β2 and α2A were fabricated on an APTES-modified gold surface. Within each array there were three columns of five replicates, corresponding to β1, β2 and α2A from the left to right column, respectively. The array incubated with 5 nM BT-CGP only was used as positive control (FIG. 9A). […] Three receptors belonging to the same family, adrenergic receptors, were arrayed within a single grid, and replicates of this grid were arrayed on a single slide. The receptors were β1, β2 and α2A, respectively.

Gs = Gs (Homo sapiens, UniProt P63092); details: unactivated form, reconstituted vesicle systems (McEwen et al.); cited from earlier work
Gs, sequence (P63092 whole entry): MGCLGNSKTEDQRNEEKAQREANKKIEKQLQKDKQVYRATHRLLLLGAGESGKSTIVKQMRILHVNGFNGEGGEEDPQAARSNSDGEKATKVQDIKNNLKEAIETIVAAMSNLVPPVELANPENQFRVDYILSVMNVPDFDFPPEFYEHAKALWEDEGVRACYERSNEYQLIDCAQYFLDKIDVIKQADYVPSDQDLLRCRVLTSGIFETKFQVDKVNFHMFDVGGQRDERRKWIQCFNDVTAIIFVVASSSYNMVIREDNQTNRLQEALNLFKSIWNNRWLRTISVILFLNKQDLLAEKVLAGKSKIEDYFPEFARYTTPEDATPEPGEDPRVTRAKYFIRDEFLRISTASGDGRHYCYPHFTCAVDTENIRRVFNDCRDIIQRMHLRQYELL

Go = Go (Homo sapiens, UniProt P09471); details: unactivated form, reconstituted vesicle systems (McEwen et al.); cited from earlier work
Go, sequence (P09471 whole entry): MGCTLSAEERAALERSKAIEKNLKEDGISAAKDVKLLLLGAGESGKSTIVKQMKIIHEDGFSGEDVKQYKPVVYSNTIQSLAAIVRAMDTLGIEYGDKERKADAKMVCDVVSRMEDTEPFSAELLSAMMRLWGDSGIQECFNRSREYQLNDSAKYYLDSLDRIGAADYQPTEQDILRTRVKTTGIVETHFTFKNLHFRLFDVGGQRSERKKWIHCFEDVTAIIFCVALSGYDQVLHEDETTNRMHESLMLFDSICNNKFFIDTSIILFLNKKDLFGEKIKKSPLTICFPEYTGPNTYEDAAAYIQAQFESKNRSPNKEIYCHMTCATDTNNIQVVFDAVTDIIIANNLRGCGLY

Gi2 = Gi2 (Homo sapiens, UniProt P04899); details: unactivated form, reconstituted vesicle systems (McEwen et al.); cited from earlier work
Gi2, sequence (P04899 whole entry): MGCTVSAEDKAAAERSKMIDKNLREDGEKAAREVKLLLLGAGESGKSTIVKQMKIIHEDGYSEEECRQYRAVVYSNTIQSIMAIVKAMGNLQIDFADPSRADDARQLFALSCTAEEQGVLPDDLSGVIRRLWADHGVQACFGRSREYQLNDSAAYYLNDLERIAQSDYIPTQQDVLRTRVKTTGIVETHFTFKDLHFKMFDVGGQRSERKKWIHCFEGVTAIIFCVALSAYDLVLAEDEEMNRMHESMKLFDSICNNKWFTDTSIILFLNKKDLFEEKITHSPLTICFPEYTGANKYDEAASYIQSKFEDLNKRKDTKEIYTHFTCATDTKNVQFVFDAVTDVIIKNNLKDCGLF

Gi1 = Gi1 (Homo sapiens, UniProt P63096); details: unactivated form, reconstituted vesicle systems (McEwen et al.); cited from earlier work
Gi1, sequence (P63096 whole entry): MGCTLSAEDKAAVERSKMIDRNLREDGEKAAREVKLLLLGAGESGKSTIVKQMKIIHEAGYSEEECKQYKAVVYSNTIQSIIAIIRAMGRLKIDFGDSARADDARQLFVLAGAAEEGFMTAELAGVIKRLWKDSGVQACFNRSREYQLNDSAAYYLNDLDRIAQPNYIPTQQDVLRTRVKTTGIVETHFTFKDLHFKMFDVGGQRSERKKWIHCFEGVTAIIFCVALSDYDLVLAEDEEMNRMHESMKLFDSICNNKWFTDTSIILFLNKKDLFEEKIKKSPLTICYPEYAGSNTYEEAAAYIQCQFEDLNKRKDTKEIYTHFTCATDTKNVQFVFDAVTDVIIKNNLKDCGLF

[1] = molecular target: T2, neurotensin receptor subtype 1 (NTR1) (Homo sapiens, UniProt P30989); experiment: Competition binding of BT-neurotensin to NTR1 receptor arrays on CMT-GAPS slides; details: BT-NT 2 nM, unlabeled ligand 1 μM
T2 construct: purchased Perkin Elmer Life Science (Boston, Mass.)
T2 sequence (P30989 whole entry): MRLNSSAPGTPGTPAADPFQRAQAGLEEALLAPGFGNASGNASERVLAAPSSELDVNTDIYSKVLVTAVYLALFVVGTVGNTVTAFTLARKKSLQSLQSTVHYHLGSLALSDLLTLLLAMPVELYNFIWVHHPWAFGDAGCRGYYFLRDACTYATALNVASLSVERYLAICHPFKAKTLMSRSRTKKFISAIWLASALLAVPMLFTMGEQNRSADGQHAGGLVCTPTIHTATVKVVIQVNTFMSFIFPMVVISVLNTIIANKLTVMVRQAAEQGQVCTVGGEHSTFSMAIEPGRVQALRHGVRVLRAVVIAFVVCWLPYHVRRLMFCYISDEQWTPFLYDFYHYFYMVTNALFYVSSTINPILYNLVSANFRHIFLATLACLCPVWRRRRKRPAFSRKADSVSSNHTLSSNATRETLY

fluorescence intensity of the β1 receptors (β1; 5 nM BODIPY-TMR-CGP12177, 10 nM ICI118551): remains almost at the same level
fluorescence intensity of β1 (β1; 5 nM BODIPY-TMR-CGP12177, 500 nM ICI118551): dramatically decreases
Compound: Cc1ccc(OCC(O)C(C)NC(C)C)c2c1CCC2 (centres unmarked) [ICI 118551]
Ki (α2A): > 10 µM

Compound: BODIPY-FL-GTPγS
Kd (Gs): 70 nM
Kd (Go): 6 nM
Kd (Gi2): 300 nM
Kd (Gi1): 150 nM

effect on intensities of NTR1 spots (inhibition of BT-NT binding) [1]: no significant decrease
Compound: CC(C)(C)NCC(O)COc1cccc2[nH]c(=O)[nH]c12 (centres unmarked) [CGP12177]
